Data reported in patent publication US20240335431A1, “1-H-PYRROLO[2,3-c]PYRIDINE COMPOUNDS” (Acerta Pharma B.V., priority 2023, published 2024).
Read-outs that look alike come from different tables or passages of the source.

Experiments:
OCI-AML3 cells = assay: Proliferation assay, OCI-AML3 (CellTiter-Glo, 7 days); type: cell-based, human
In short: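 Cells were seeded at line-specific low densities for linear growth, exposed to 3.16-fold serial compound dilutions at 0.1% DMSO, and incubated 7 days at 37 °C, 5% CO2. Viability was read by CellTiter-Glo 2.0 luminescence; IC50 came from one-site fits of % inhibition, normalized between DMSO-treated cells (100%) and a day-0 plate (0%).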

muscarinic M2 receptor = muscarinic M2 receptor (Homo sapiens (Human), UniProt P08172); assay: Muscarinic M2 receptor binding assay (assay 1); conditions: [3H]AF-DX 384 2 nM, Cheng Prusoff
In short: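 Membrane homogenates (60 μg protein) were incubated with 2 nM [3H]AF-DX 384 for 60 min at 22° C in Tris-HCl pH 7.4 with NaCl, KCl, MgCl2 and EDTA; 1 μM atropine defined nonspecific binding. Filtration and scintillation counting gave percent inhibition of specific binding, with Ki by Cheng-Prusoff.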

[1] = Human liver microsomes (HLMs) intrinsic clearance assay; type: in vitro ADME
[2] = human, microsomes, pH 7.4, HLM CLint
[3] = human, microsomes, 1 µM, pH 7.4
[4] = human, microsomes, pH 7.4, 1 mg/mL HLM, NADPH, read-out: HLM CLint

Chain of muscarinic M2 receptor (P08172 whole entry): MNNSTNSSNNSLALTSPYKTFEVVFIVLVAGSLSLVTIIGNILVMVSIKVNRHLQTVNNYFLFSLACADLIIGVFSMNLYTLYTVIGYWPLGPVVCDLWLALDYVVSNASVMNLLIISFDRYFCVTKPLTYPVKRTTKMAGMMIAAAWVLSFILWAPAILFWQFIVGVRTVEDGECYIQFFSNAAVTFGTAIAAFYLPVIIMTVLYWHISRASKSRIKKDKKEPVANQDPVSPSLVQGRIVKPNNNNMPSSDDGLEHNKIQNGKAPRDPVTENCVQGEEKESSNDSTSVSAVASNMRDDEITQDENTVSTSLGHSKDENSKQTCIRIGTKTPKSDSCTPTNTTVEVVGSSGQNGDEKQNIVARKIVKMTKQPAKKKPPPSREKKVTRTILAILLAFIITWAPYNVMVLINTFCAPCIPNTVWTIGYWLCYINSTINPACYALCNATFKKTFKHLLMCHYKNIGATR

Row | Structure (SMILES) | IC50 (OCI-AML3 cells; Homo sapiens, OCI-AML-3, 168 h) | Ki (muscarinic M2 receptor) | microsomal CLint at 1 µM [1, 2] | IC50 (OCI-AML3 cells) | HLM CLint [1, 3] | microsomal CLint at 1 µM [1, 4] | HLM CLint ([1]; 1 mg/mL HLM, NADPH)
1 | Cc1c(C(=O)C2CCN(C(=O)[C@H]3NC[C@@H]4C[C@@H]43)CC2)c2ccncc2n1-c1ccc(F)cc1-c1cnccc1C(C)C [Example 54, (1-((1S,2S,5R)-3-Azabicyclo[3.1.0]hexane-2-carbonyl)piperidin-4-yl)(1-(4-fluoro-2-(4-isopropylpyridin-3-yl)phenyl)-2-methyl-1H-pyrrolo[2,3-c]pyridin-3-yl)methanone] | 43 nM | 3500 nM | 73 µL/min/mg |  |  |  | 
2 | CCN(C(=O)c1cc(F)ccc1-n1cc(C(=O)C2CN(C(=O)[C@H]3N[C@@H]4CC[C@H]3C4)C2)c2ccncc21)C(C)C [Example 8, 2-(3-(1-((1R,3S,4S)-2-Azabicyclo[2.2.1]heptane-3-carbonyl)azetidine-3-carbonyl)-1H-pyrrolo[2,3-c]pyridin-1-yl)-N-ethyl-5-fluoro-N-isopropylbenzamide] | 193 nM | 8000 nM | 21 µL/min/mg |  |  |  | 
3 | CC(C)c1cnccc1-c1cc(F)ccc1-n1cc(C(=O)C2CN(C(=O)[C@H]3N[C@@H]4CC[C@H]3C4)C2)c2ccncc21.O=CO [Example 11, (1-((1R,3S,4S)-2-Azabicyclo[2.2.1]heptane-3-carbonyl)azetidin-3-yl)(1-(4-fluoro-2-(3-isopropylpyridin-4-yl)phenyl)-1H-pyrrolo[2,3-c]pyridin-3-yl)methanone 1·formic acid] | 51 nM | 5000 nM | > 294 µL/min/mg |  |  |  | 
4 | CCN(C(=O)c1cc(F)ccc1-n1c(C)c(C(=O)C2CCN(C(=O)[C@H]3NC[C@@H]4C[C@@H]43)CC2)c2ccncc21)C(C)C [Example 47, 2-(3-(1-((1S,2S,5R)-3-Azabicyclo[3.1.0]hexane-2-carbonyl)piperidine-4-carbonyl)-2-methyl-1H-pyrrolo[2,3-c]pyridin-1-yl)-N-ethyl-5-fluoro-N-isopropylbenzamide] | 26 nM | 7300 nM | 54 µL/min/mg |  |  |  | 
5 | CC(C)N(C(=O)c1cc(F)ccc1-n1cc(C(=O)C2CCN(C(=O)[C@@H]3CCC4(CC4)N3)CC2)c2ccncc21)C(C)C [Example 24, (S)-2-(3-(1-(4-Azaspiro[2.4]heptane-5-carbonyl)piperidine-4-carbonyl)-1H-pyrrolo[2,3-c]pyridin-1-yl)-5-fluoro-N,N-diisopropylbenzamide] | 21 nM | 1200 nM |  |  |  | 145 µL/min/mg | 
6 | CC(C)N(C(=O)c1cc(F)ccc1-n1cc(C(=O)C2CN(C(=O)[C@H]3N[C@@H]4CC[C@H]3C4)C2)c2ccnc(F)c21)C(C)C [Example 15, 2-(3-(1-((1R,3S,4S)-2-Azabicyclo[2.2.1]heptane-3-carbonyl)azetidine-3-carbonyl)-7-fluoro-1H-pyrrolo[2,3-c]pyridin-1-yl)-5-fluoro-N,N-diisopropylbenzamide] | 103 nM | 13600 nM | 132 µL/min/mg |  |  |  | 
7 | CC(C)N(C(=O)c1cc(F)ccc1-n1cc(C(=O)C2CN(C(=O)[C@H]3N[C@H]4C[C@@H]3[C@@H](F)C4)C2)c2ccncc21)C(C)C [Example 7, 5-Fluoro-2-(3-(1-((1S,3S,4S,5S)-5-fluoro-2-azabicyclo[2.2.1]heptane-3-carbonyl)azetidine-3-carbonyl)-1H-pyrrolo[2,3-c]pyridin-1-yl)-N,N-diisopropylbenzamide] | 115 nM | 14400 nM | 148 µL/min/mg |  |  |  | 
8 | Cc1c(C(=O)C2CCN(C(=O)[C@@H]3CCC4(CC4)N3)CC2)c2ccncc2n1-c1ccc(F)cc1C(=O)N1[C@H](C)COC[C@H]1C (single isomer, unassigned) [Example 58-2] | 35 nM | 4200 nM |  |  |  |  | 85 µL/min/mg
9 | CC(C)N(C(=O)c1cc(F)ccc1-n1cc(C(=O)C2CCN(C(=O)[C@H]3N[C@@H]4CC[C@H]3C4)CC2)c2c(F)cncc21)C(C)C.O=CO [Example 44, 2-(3-(1-((1R,3S,4S)-2-Azabicyclo[2.2.1]heptane-3-carbonyl)piperidine-4-carbonyl)-4-fluoro-1H-pyrrolo[2,3-c]pyridin-1-yl)-5-fluoro-N,N-diisopropylbenzamide 1·formic acid] | 117 nM | 2800 nM | 17 µL/min/mg |  |  |  | 
10 | CC(C)(F)c1ncccc1-c1cc(F)ccc1-n1cc(C(=O)C2CN(C(=O)[C@H]3N[C@@H]4CC[C@H]3C4)C2)c2ccncc21 [Example 13, (1-((1R,3S,4S)-2-Azabicyclo[2.2.1]heptane-3-carbonyl)azetidin-3-yl)(1-(4-fluoro-2-(2-(2-fluoropropan-2-yl)pyridin-3-yl)phenyl)-1H-pyrrolo[2,3-c]pyridin-3-yl)methanone] | 37 nM | 9700 nM | 119 µL/min/mg |  |  |  | 
11 | CC(C)N(C(=O)c1cc(F)ccc1-n1cc(C(=O)C2CCN(C(=O)[C@@H]3CC4(CC4)CN3)CC2)c2ccncc21)C(C)C [Example 26, (S)-2-(3-(1-(5-Azaspiro[2.4]heptane-6-carbonyl)piperidine-4-carbonyl)-1H-pyrrolo[2,3-c]pyridin-1-yl)-5-fluoro-N,N-diisopropylbenzamide] | 140 nM | 2600 nM |  |  |  | 51 µL/min/mg | 
12 | CCN(C(=O)c1cc(F)ccc1-n1c(C)c(C(=O)C2CCN(C(=O)[C@@H]3CCC4(CC4)N3)CC2)c2ccncc21)C(C)C (single isomer, unassigned) [Example 49-2] | > 233 nM | 27400 nM |  |  |  |  | 127 µL/min/mg
13 | Cc1c(C(=O)C2CCN(C(=O)[C@@H]3CCC(C)(C)N3)CC2)c2ccncc2n1-c1ccc(F)cc1C(=O)N(C(C)C)C(C)C (single isomer, unassigned) [Compound 56-2] | 47 nM | > 100000 nM |  |  | 91 µL/min/mg |  | 
14 | CC(C)c1ncsc1-c1cc(F)ccc1-n1cc(C(=O)C2CCN(C(=O)[C@H]3N[C@@H]4CC[C@H]3C4)CC2)c2ccncc21.O=CO [Example 42, (1-((1R,3S,4S)-2-Azabicyclo[2.2.1]heptane-3-carbonyl)piperidin-4-yl)(1-(4-fluoro-2-(4-isopropylthiazol-5-yl)phenyl)-1H-pyrrolo[2,3-c]pyridin-3-yl)methanone 1·formic acid] | 76 nM | 500 nM | 219 µL/min/mg |  |  |  | 

Now from value to compound, other results behind:

Row | IC50 (OCI-AML3 cells; Homo sapiens, OCI-AML-3, 168 h) | Ki (muscarinic M2 receptor) | microsomal CLint at 1 µM [1, 2] | IC50 (OCI-AML3 cells) | HLM CLint [1, 3] | Structure (SMILES) | microsomal CLint at 1 µM [1, 4] | HLM CLint ([1]; 1 mg/mL HLM, NADPH)
15 |  | 19800 nM |  | 14 nM | 155 µL/min/mg | Cc1c(C(=O)[C@@H]2CCN(C(=O)[C@H]3NC[C@@H]4C[C@@H]43)[C@@H](C)C2)c2ccncc2n1-c1ccc(F)cc1C(=O)N(CC(F)(F)F)C(C)C (single isomer, unassigned) [Example 53-3, 2-(3-((2R*,4S*)-1-((1S,2S,5R)-3-Azabicyclo[3.1.0]hexane-2-carbonyl)-2-methylpiperidine-4-carbonyl)-2-methyl-1H-pyrrolo[2,3-c]pyridin-1-yl)-5-fluoro-N-isopropyl-N-(2,2,2-trifluoroethyl)benzamide] |  | 
16 | 77 nM | > 100000 nM | 84 µL/min/mg |  |  | Cc1c(C(=O)C2CCN(C(=O)[C@H]3NC[C@@H]4C[C@@H]43)CC2)c2ccncc2n1-c1ccc(F)cc1C(=O)N(C(C)C)[C@H](C)C(F)(F)F (single isomer, unassigned) [Example 57-1] |  | 
17 | 29 nM | 51900 nM |  |  | 194 µL/min/mg | Cc1c(C(=O)C2CCN(C(=O)[C@H]3NC[C@@H]4C[C@@H]43)CC2)c2ccncc2n1-c1ccc(F)cc1C(=O)N(C(C)C)C(C)C (single isomer, unassigned) [Example 55-2] |  | 
18 |  | 19000 nM |  | 23 nM | 55 µL/min/mg | CCN(C(=O)c1cc(F)ccc1-n1c(C)c(C(=O)C2CCN(C(=O)[C@H]3NC[C@@H]4C[C@@H]43)CC2)c2ccncc21)C(C)C (single isomer, unassigned) [Example 48-2] |  | 
19 | 37 nM | 30700 nM |  |  | 52 µL/min/mg | Cc1c(C(=O)C2CCN(C(=O)[C@H]3NC[C@@H]4C[C@@H]43)CC2)c2ccncc2n1-c1ccc(F)cc1C(=O)N(CC(F)(F)F)C(C)C (single isomer, unassigned) [Example 51-2] |  | 
